Results on 28 compounds are retold here after ChEMBL document CHEMBL1133937, “New 1-aryl-4-(biarylmethylene)piperazines as potential atypical antipsychotics sharing dopamine D(2)-receptor and serotonin 5-HT(1A)-receptor affinities” (Bioorg Med Chem Lett, 2001).

For one experiment, the system named is Mus musculus. The experiment can be described thus: In vivo inhibition of the apomorphine-induced climbing behavior in mice. It is filed as functional.
For experiment [1], the system named is Rattus norvegicus. The experiment can be described thus: In vivo suppression of the conditioned avoidance response (CAR) in rats after po administration of the compound. Format: functional.
For experiment [2], the target named is T1, 5-hydroxytryptamine receptor 1A (Homo sapiens, UniProt P08908).
T1 sequence (P08908 whole entry): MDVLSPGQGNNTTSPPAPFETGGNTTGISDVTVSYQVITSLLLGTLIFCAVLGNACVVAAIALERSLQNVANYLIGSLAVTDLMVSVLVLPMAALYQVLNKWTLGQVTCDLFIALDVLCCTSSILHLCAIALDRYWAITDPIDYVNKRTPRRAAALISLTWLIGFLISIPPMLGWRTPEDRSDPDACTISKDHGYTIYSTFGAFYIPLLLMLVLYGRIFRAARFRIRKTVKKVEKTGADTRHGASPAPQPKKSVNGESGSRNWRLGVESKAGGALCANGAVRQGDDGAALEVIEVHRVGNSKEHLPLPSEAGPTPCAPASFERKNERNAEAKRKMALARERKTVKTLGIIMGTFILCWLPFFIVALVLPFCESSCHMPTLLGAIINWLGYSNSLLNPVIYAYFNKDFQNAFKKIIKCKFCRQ
The experiment can be described thus: Binding affinity for 5-hydroxytryptamine 1A receptor determined using [3H]8-OH-DPAT as radioligand.

Experiment [3] relates to Rattus norvegicus. The experiment can be described thus: Tested for occurrence of lower lip retraction in rat after po administration of the compound. It is filed as functional.
For experiment [4], the system named is Rattus norvegicus. The experiment can be described thus: In vivo suppression of the conditioned avoidance response (CAR) in rats after ip administration of the compound. Format: functional.

Turning to `O=C(CCCN1CCC(O)(c2ccc(Cl)cc2)CC1)c1ccc(F)cc1` [HALOPERIDOL], the values for the 50% effective dose (ED50) with Mus musculus and in the experiment on Rattus norvegicus [1] were 0.2 mg/kg and 0.3 mg/kg, respectively.

On to `O=c1[nH]c2cccc(N3CCN(Cc4cccc(-c5ccccc5)c4)CC3)c2o1` [BIFEPRUNOX], for which, in experiment [2], the Ki worked out at 9.3 nM. Further, the ED50 with Mus musculus was 0.1 mg/kg; with Rattus norvegicus [3], 10 mg/kg; with Rattus norvegicus [1], 0.8 mg/kg.

In the case of `O=C1COc2c(cccc2N2CCN(Cc3cccc(-c4ccccc4)c3)CC2)N1`, the affinity in experiment [2] corresponds to a Ki of 49 nM.

Take `Oc1nc2cccc(N3CCN(Cc4cccc(-c5ccc(F)cc5)n4)CC3)c2o1`: the inhibition constant (Ki) in experiment [2] worked out at 200 nM.

In the case of `Cc1nc2n(c(=O)c1CCN1CCC(c3noc4cc(F)ccc34)CC1)CCCC2` [RISPERIDONE], the 50% effective dose (ED50) with Mus musculus amounted to 0.1 mg/kg; in the experiment on Rattus norvegicus [1], 1 mg/kg.

The compound `c1ccc(-c2cccc(CN3CCN(c4cccc5c4OCCN5)CC3)c2)cc1` registered a Ki in experiment [2] of 26 nM.

Take `O=C(NCCN1CCN(c2cccc3nc(O)oc23)CC1)c1ccc(F)cc1`: in experiment [2], the affinity corresponds to a Ki of 7.9 nM.

The compound `Cn1c(=O)oc2c(N3CCN(Cc4cccc(-c5ccccc5)c4)CC3)cccc21` had a Ki in experiment [2] of 130 nM.

For `COc1ccccc1N1CCN(CCNC(=O)c2ccc(F)cc2)CC1`, the Ki in experiment [2] is 1 nM.

Regarding `c1ccc(-c2cccc(CN3CCN(c4cccc5ccoc45)CC3)c2)cc1`, the Ki in experiment [2] is 38 nM.

`O=c1[nH]c2cccc(N3CCN(Cc4cccc(-c5cccs5)c4)CC3)c2o1` had a Ki in experiment [2] of 32 nM.

`Oc1nc2cccc(N3CCN(Cc4cncc(-c5ccccc5)c4)CC3)c2o1` yielded a Ki in experiment [2] of 7.8 nM. For the same compound, the 50% effective dose (ED50) in the experiment with Mus musculus came out at 0.1 mg/kg; in the experiment with Rattus norvegicus [3], 3 mg/kg; in the experiment with Rattus norvegicus [1], 0.4 mg/kg.

As for `Oc1nc2cccc(N3CCN(Cc4cc(-c5ccc(F)cc5)ccn4)CC3)c2o1`, the inhibition constant Ki in experiment [2] turned out to be 16 nM. The 50% effective dose (ED50) is 0.1 mg/kg in the experiment on Mus musculus, more than 30 mg/kg in the experiment on Rattus norvegicus [3] and less than 10 mg/kg in the experiment with Rattus norvegicus [1].

As for `Fc1ccc(-c2ccc(CN3CCN(c4cccc5ccoc45)CC3)[nH]2)cc1` [ELOPIPRAZOLE], in experiment [2], the Ki stood at 1.5 nM.

For the compound `Oc1nc2cccc(N3CCN(Cc4ccc(O)c(-c5ccccc5)c4)CC3)c2o1`, affinity in experiment [2] was put at a Ki of 7.6 nM. The ED50 is 7 mg/kg in the experiment with Mus musculus, more than 30 mg/kg with Rattus norvegicus [3] and 20 mg/kg in the experiment with Rattus norvegicus [4].

In experiment [2], `c1ccc(-c2cccc(CN3CCN(c4cccc5c4CCCN5)CC3)c2)cc1` returned a Ki of 85 nM.

Turning to `N#Cc1ccccc1-c1cccc(CN2CCN(c3cccc4nc(O)oc34)CC2)c1`, the inhibition constant Ki in experiment [2] was determined as 32 nM.

In experiment [2], `O=c1[nH]c2cccc(N3CCN(Cc4cc(-c5ccccc5)ccc4F)CC3)c2o1` had a Ki of 41 nM.

Compound `N#Cc1cccc(-c2cccc(CN3CCN(c4cccc5nc(O)oc45)CC3)c2)c1` had a Ki in experiment [2] of 23 nM.

For `O=c1[nH]c2cccc(N3CCN(Cc4ccnc(-c5ccc(F)cc5)c4)CC3)c2o1`, the inhibition constant Ki in experiment [2] turned out to be 21 nM.

The compound `Oc1nc2cccc(N3CCN(Cc4cccc(-c5cccc(Cl)c5)c4)CC3)c2o1` showed a Ki in experiment [2] of 42 nM.

In experiment [2], `Cc1cccc(-c2cccc(CN3CCN(c4cccc5[nH]c(=O)oc45)CC3)c2)c1` showed a Ki of 35 nM.

Compound `Oc1nc2cccc(N3CCN(Cc4cccc(-c5ccsc5)c4)CC3)c2o1` returned a Ki in experiment [2] of 17 nM. The ED50 in the experiment on Mus musculus is 0.2 mg/kg; with Rattus norvegicus [3], more than 30 mg/kg; in the experiment with Rattus norvegicus [4] it was more than 20 mg/kg.

In experiment [2], `c1ccc(-c2cccc(CN3CCN(c4cccc5c4OCO5)CC3)c2)cc1` returned an inhibition constant (Ki) of 15 nM.

In the case of `COc1cccc(-c2cccc(CN3CCN(c4cccc5[nH]c(=O)oc45)CC3)c2)c1`, in experiment [2], the Ki stood at 21 nM.

In turn, `Oc1nc2cccc(N3CCN(Cc4cccc(-c5ccc(F)cc5)c4)CC3)c2o1` came in with a Ki in experiment [2] of 14 nM.

Regarding `CN1CCN(C2=Nc3cc(Cl)ccc3Nc3ccccc32)CC1` [CLOZAPINE], the ED50 in the experiment on Mus musculus is 22 mg/kg; with Rattus norvegicus [1], 32 mg/kg.

For `c1ccc(-c2cccc(CN3CCN(c4cccc5c4OCCO5)CC3)c2)cc1`, the Ki in experiment [2] is 0.91 nM.

A word on the ED50: it is the midpoint of the dose-response relation. One may read the Ki as a measure of affinity in units of concentration, obtained from inhibition or displacement. The low end stands for tighter binding, the high end for weaker binding.
